Reference: publication PMC4823786, “Redirection of pyruvate flux toward desired metabolic pathways through substrate channeling between pyruvate kinase and pyruvate-converting enzymes in Saccharomyces cerevisiae” (Scientific Reports, 2016)

Target: T1, His6-LdhA (Leuconostoc mesenteroides, UniProt Q03VC9)
T1 construct: gene LEUM_1756; N-terminal His6 tag (pET28b), expressed in E. coli Rogetta gami2 (DE3) pLysS, Ni-NTA purified
Assay: NADH oxidation monitored at […] nm
Format: biochemical
Details: 10 mM sodium pyruvate, 0.2 mM β-NADH, 50 mM Tris-HCl pH 7.0

T1 sequence (Q03VC9 entry or part of it): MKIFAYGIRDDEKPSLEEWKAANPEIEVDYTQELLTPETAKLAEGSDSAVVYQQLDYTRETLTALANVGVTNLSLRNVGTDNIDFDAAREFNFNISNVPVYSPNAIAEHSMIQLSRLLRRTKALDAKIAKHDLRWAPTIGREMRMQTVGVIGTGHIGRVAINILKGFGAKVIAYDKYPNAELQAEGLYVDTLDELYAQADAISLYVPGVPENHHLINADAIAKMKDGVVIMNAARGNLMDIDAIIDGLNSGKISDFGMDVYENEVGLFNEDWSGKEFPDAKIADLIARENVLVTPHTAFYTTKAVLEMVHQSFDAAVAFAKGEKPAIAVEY

CC(=O)C(=O)O [pyruvate]
NADH oxidation monitored at 340 nm: reduction of pyruvate to lactate was monitored by measuring the oxidation rate of NADH

NC(=O)C1=CN([C@@H]2O[C@H](COP(=O)(O)OP(=O)(O)OC[C@H]3O[C@@H](n4cnc5c(N)ncnc54)[C@H](O)[C@@H]3O)[C@@H](O)[C@H]2O)C=CC1 [NADH]
NADH oxidation monitored at 340 nm: reduction of pyruvate to lactate was monitored by measuring the oxidation rate of NADH
